Data taken from patent publication EP0707004A1, “1-Arylalcenyl 4-arylmethylpiperazinderivatives, process for their preparation and pharmaceutical composition containing them” (ADIR ET COMPAGNIE, priority 1994, dated 1996).

System: hyperactivité induite par la N-allylnormétazocine
Test: Antagonism of N-allylnormetazocine-induced hyperactivity
Format: in vivo
Conditions: dose 32 mg.kg⁻¹; rats; N-allylnormetazocine 50 mg/kg subcutaneous
Description: Ce test a été mis au point par Snyder S.H. et al (J. Neuropsychiatry, 1989, 1 : 7-15). La N-allylnormetazocine ((+) SKF 10047) induit un comportement psychotique chez l'homme et est le prototype d'agoniste pour les récepteurs σ.
La mesure de l'hyperactivité induite par ce produit est donc utilisée comme modèle alternatif pour détecter l'activité antipsychotique des composés agissant sur les récepteurs σ.
Un groupe de 12 rats est traité avec le composé à tester avant l'administration sous-cutanée de 50 mg/kg de la N-allylnormetazocine. 30 minutes plus tard, les animaux sont placés dans un actimètre pendant 30 minutes.
L'halopéridol est utilisé comme composé de référence.

CCC(=Cc1ccccc1)C(=O)N1CCN(Cc2ccccc2)CC1 [Exemple 9, 1-(3-phényl-2-éthylprop-2-ènoyl)-4-benzylpipérazine]
antagonisme de l'hypermotilité induite par la N-allylnormétazocine: 42%
